Test [1] concerns Nitric Oxide On Stimulated Macrophages. Kind of test: Inhibition of nitric oxide on stimulated macrophages. Format: cell-based. To be noted: Mus musculus, Macrophage, 25 μM compound. As for the experimental part: Peritoneal exudate macrophages were isolated by peritoneal lavage with ice-cold sterile physiological saline 24 hours after intraperitoneal injection of BALB/c mice with 0.3 ml of sterile zymosan A (1 mg/0.5 mL 0.9% saline). […] All treatments were replicated six times. Cells were incubated for an additional 24 hours, and cell free culture supernatants from each well were collected for NO and cytokine determination. The remaining cells were stained with crystal violet to determine effect of the compound on cell survival. […] The absorbance at 550 nm was determined. All measurements were performed six times.

Another test relates to PC3 Cells. The test can be described thus: Tumor cell migration assay. The test is classed as cell-based. To be noted: Homo sapiens, PC-3, 25 μM compound. The protocol: The invasion test system (BD Bioscience's BioCoat™ FluoroBlok™ Invasion System including BD BioCoat™ Matrigel™ Invasion Chambers with the fluorescence blocking membrane FluoroBlok™ 24-Multiwell Insert System™) is removed from the package from −20° C. storage and allowed to warm to ambient temperature. PBS is added to the interior of the inserts and they are allowed to rehydrate for 2 hours at 37° C. The medium is then removed and 450 μL cell suspensions of tumor cells (grown to 50-70% confluence, trypsinized, and resuspended in medium without serum at 1×10^6/mL) is added to the top chamber. Test compounds are added to the top chamber at 10× the desired final concentration in 50 μL volumes. DMSO acts as the control. […]
Data is expressed as fluorescence units (FU) from the sum of middle 25 areas per 24-well or as percentage of invasion inhibition by following formula: % of invasion inhibition=100−FU of compound treated cell invasion/FU of DMSO treated cell invasion*100.
Tumor cell migration assay was conducted in the similar way as described in Example 16 except that the plates used were constructed with only a porous membrane dividing a top and bottom chamber without the additional thin Matrigel™ layer on top of the membrane (BD Fluoroblock™ plates). The percent inhibition of migration was determined in the same way as illustrated in Example 16.

Our source for the inhibition values is patent publication US8754233B2, “Pyrazolylbenzothiazole derivatives and their use as therapeutic agents” (Dermira (Canada), Inc., priority 2002, dated 2014).

Take `Nc1n[nH]c(Nc2ccc3ncccc3c2)c1-c1nc2ccccc2s1` [4-Benzothiazol-2-yl-N^5-quinolin-6-yl-1H-pyrazole-3,5-diamine]: the inhibition at 25 µM in test [1] turned out to be 66.1%; with PC3 Cells it was 81%.

In general, inhibition refers to the relative decrease from the control value, in per cent. A higher inhibition goes with a response far below the control.
